B1: recombinant creatinine deiminase: creatinine deiminase (EC 3.5.4.21) from Tissierella creatinini, heterologously expressed in E. coli; 406 amino acid polypeptide (protein, listed as Tissierella creatinini)
chain: MMKKFINAKIYKNNEATEILVEDGKIKEIGNNLADCKEVIDLGGKMVTPPYVDPHLHLDYVYTLAELGKTGAGSGTLFEAIEMWPVFKKTLTVESVKKLALKGVMDEVSQGVQHIRTHIDVTDPKFTGLKAMLEMKEELKDIVDIQIVSFPQQGMYTYKGGRELVEEALKMGADVVGGIPHYEPAREYGEMSVKATVELAMKYDKLIDVHCDETDDPQARFIELLNALVYLEGYGAKTSASHTCSFGSADDSYAYRMIDLFKKSKINFISNPTENAYLQGRHDTYPKRRGLTRVKEFMEHGINVAFAQDSINDPWYPMGNGNMMNILDNGIHLAQIMSPQDIEKDLDLITYNGARCLNIQDKYLLEVGKDSNFIVLNGDSPFDVIRNRANVLACVRKGEFYLSKNQ

Tests used:
[1] = tested on: purified heterologously expressed creatinine deiminase from Tissierella creatinini; assay: Interference studies: compound added to the reaction mixture, creatinine deiminase activity determined (coupled optical test); assay type: biochemical; settings: for Maximum concentration without interference: compound added to standard reaction mixture, creatinine deiminase activity
Text: A technique for specifically measuring the creatinine concentration of a sample includes a simple indicator reaction step is provided, whereby no complicated auxiliary measurement reactions are necessary. […] Therefore, the subject creatinine deiminase polypeptide specifically and preferentially interacts with creatinine also in presence of other substrates with high specificity, without undue interference from other molecules which would otherwise compromise the accuracy of the measured value for the creatinine concentration in the sample.
(§1) The activity of the purified recombinant enzyme was determined using a modified enzymatic method developed by Bergmeyer (Bergmeyer, H. U. (1985), Methods of enzymatic analysis 8: 488–507). This method includes the measuring of free ammonia produced during a creatinine deiminase reaction via a coupled optical test, by measuring the […] of NADH consumed by the free ammonia at […] and/or 365 nm. The initial reaction comprised the following concentrations in a final volume of 0.6 ml: TEA buffer 0.11 mol/l, pH 8.6; creatinine 1.5 mmol/l; ADP 1.11 mmol/l; DTE 1 mmol/l; NADH 0.11 mmol/l; 2-oxoglutarate 11 mmol/l; glutamate dehydrogenase 8 U/ml. After incubating the reaction components (5 min at 37° C.), 0.01 ml of the purified recombinant enzyme was transferred to a cuvette and placed into a photometer for observing the extinction acceptance reaction at 340 nm. One enzyme unit was determined to catalyze the degrading of 1 μmol creatinine/min at 37° C.
A series of interference studies was performed using the purified and expressed creatinine deiminase polypeptide in the presence of the different serum compounds. The compound was provided to the standard reaction mixture and the creatinine deiminase activity was determined using the methods described above.

[2] = Enzyme activity of recombinant creatinine deiminase (coupled optical test / Jaffé method); assay type: biochemical
Procedure: The heterologous expression of an active creatinine deiminase derived from T. creatinini in E. coli (from the recombinant cell extract) was analyzed using gel electrophoresis (FIG. 8) and by determining the enzymatic activity in the cell-free raw extracts. […] Additionally, a band for the purified creatinine deiminase appeared at this same distance of 300 kDa (see FIG. 8, lanes 3 and 5), and likewise a similar band appeared in the raw extract of T. creatinini (FIG. 8, lane 2). The predicted size for creatinine deiminase (300 kDa) is well within range of the known value (288 kDa) as determined by Gottschalk et al. 1991 (supra). The specific activity of the recombinant creatinine deiminase in the cell-free extract was determined to be about 10.2 U/mg.
Heterologous sequences expressing creatinine deiminase (EC 3.5.4.21), as derived from T. creatinini, were also purified according to methods described by Gottschalk et al. 1991 (supra). The creatinine deiminase protein was purified from 5 g of cells using ammonium sulphate precipitation and chromatography to apparent homogeneity using phenylsepharose and DEAE-Sepharose CL6B (see FIG. 9). The specific activity of the purified recombinant enzyme was determined to be 1423 U/mg (see Table 2). The enzyme was suspended in a potassium phosphate buffer (KPP; pH 7.65, 50% Glycerin) and stored at −20° C. in. The purification steps are described as follows:
as §1

[3] = Storage stability of the purified enzyme in dialysis buffer; assay type: physicochemical; settings: in the dialysis buffer for several months
Procedure: These samples were dialyzed using several rounds of fresh buffer (0.05 mol/l potassium phosphate, pH 7.65/glycerine, 1:2 v/v) at 4° C. until ammonia could no longer be detected.
The purified enzyme remained stable in the dialysis buffer for several months, experiencing a loss of activity of 9.1%. The optimal pH value for the purified enzyme, when suspended in phosphate and TEA buffers, was within the range of 8.5–8.75, with maximum activity measured at 47° C.

Row | Molecule | Maximum concentration without interference [1] | also measured
1 | C[C@](N)(Cc1ccc(O)c(O)c1)C(=O)O [α-Methyl-Dopa] | 107 mg/L | –
2 | CC(=O)O [Acetic acid] | 200 mg/L | –
3 | Nc1nc(=O)[nH]cc1F [5-Fluorocytosine] | 1000 mg/L | –
4 | C[C@H](CS)C(=O)N1CCC[C@H]1C(=O)O [Captopril] | 83 mg/L | –
5 | CNC[C@H](O)c1ccc(O)c(O)c1 [Epinephrine] | 0.05 mg/L | –
6 | CN(CC(=O)O)C(=N)N [Creatine] | 2000 mg/L | –
7 | NS(=O)(=O)c1cc(C(=O)O)c(NCc2ccco2)cc1Cl [Fuoresemide] | 4433 mg/L | –
8 | O=C(O)C(=O)O [Oxalic acid] | 400 mg/L | –
9 | NC[C@H](O)c1ccc(O)c(O)c1 [Norepinephrine] | 1.5 mg/L | –
10 | O=C(O)c1cc(/N=N/c2ccc(S(=O)(=O)Nc3ccccn3)cc2)ccc1O [Salazosulphapyridine] | 550 mg/L | –
11 | Nc1cc[nH]c(=O)n1 [Cytosine] | 2000 mg/L | concentration without any interference ([1]; as stated in the text for Table 1): up to 2000 mg/ml
12 | CC(C)=O [Acetone] | 2000 mg/L | –
13 | Cc1cc(NS(=O)(=O)c2ccc(N)cc2)no1 [Sulphamethoxazole] | 500 mg/L | –
14 | Hemoglobin | 0 mg/L | –
15 | CC(=O)CC(=O)O [Acetoacetate] | 7.8 mg/L | –
16 | CN[C@H](CC(C)C)C(=O)N[C@H]1C(=O)N[C@@H](CC(N)=O)C(=O)N[C@H]2C(=O)N[C@H]3C(=O)N[C@H](C(=O)N[C@H](C(=O)O)c4cc(O)cc(O)c4-c4cc3ccc4O)[C@H](O)c3ccc(c(Cl)c3)Oc3cc2cc(c3O[C@@H]2O[C@H](CO)[C@@H](O)[C@H](O)[C@H]2O[C@H]2C[C@](C)(N)[C@H](O)[C@H](C)O2)Oc2ccc(cc2Cl)[C@H]1O [Vancomycin] | 288 mg/L | –
17 | COc1cc(Cc2cnc(N)nc2N)cc(OC)c1OC [Trimethoprime] | 46 mg/L | –
18 | N[C@@H](Cc1c[nH]cn1)C(=O)O [Histidine] | 2250 mg/L | –
19 | B1 | – | Km ([2]; Lineweaver Burke plot analysis): 1100 µM; specific activity of the purified recombinant enzyme ([2]; after phenylsepharose and DEAE-Sepharose CL6B): 1423 U/mg; specific activity in the cell-free extract ([2]; cell-free extract of E. coli DH5α/pKT1): about 10.2 U/mg; optimal pH value ([2]; in phosphate and TEA buffers): 8.5–8.75; Vmax ([2]; per protein): 1467 U/mg; Vmax ([2]; this enzyme preparation): 8.8 U/ml; loss of activity [3]: 9.1%

Source: US7205140B2, “Nucleotide sequence for creatinine deiminase and method of use” (CampusGen GmbH, priority 2003, dated 2007)
